What all share (type): functional, Mus musculus
Test [1] has as its system MC-38. Briefly: Optimal dose 24 hr after intraperitoneal administration against C38 colon tumor cells in mice.
Test [2] concerns MC-38. Briefly: Percent necrosis activity against subcutaneous C38 colon tumor cells in vivo. The arrangement: concentration or dose not given beside the values.
Test [3] concerns MC-38. Briefly: Percent necrosis activity against subcutaneous C38 colon tumor cells in vivo; range is 50-90%.

The structures appear in SMILES notation. A value given as a limit tells only on which side of the number the result lay.

In the test on MC-38 [1], `CCOc1cccc2c(=O)c3cccc(CC(=O)O)c3oc12` showed an OD of 330 mg/kg. Further, the Activity with MC-38 [2] is recorded as more than 90%.

For `O=C(O)Cc1cccc2c(=O)c3cccc(F)c3oc12`, in the test with MC-38 [1], the OD amounted to 330 mg/kg.

`CCc1cccc2c(=O)c3cccc(CC(=O)O)c3oc12` yielded an OD with MC-38 [1] of 100 mg/kg. This compound also yielded an Activity in the test with MC-38 [2] of more than 90%.

Turning to `O=C(O)Cc1cccc2c(=O)c3cccc(CC(=O)O)c3oc12`, the OD with MC-38 [1] was found to be 330 mg/kg.

Turning to `COc1cccc2c(=O)c3cccc(CC(=O)O)c3oc12`, in the test on MC-38 [1], the OD was found to be 150 mg/kg. The compound further came in with an Activity in the test with MC-38 [3] of 90%.

As for `O=C(O)Cc1cccc2c(=O)c3cccc(Cl)c3oc12`, the OD in the test on MC-38 [1] was 150 mg/kg. For the same compound, the Activity with MC-38 [2] was more than 90%.

In turn, `O=C(O)Cc1cccc2c(=O)c3cccc(C(F)(F)F)c3oc12` yielded an OD with MC-38 [1] of 220 mg/kg. Besides, in the test with MC-38 [3], the Activity is reported as 90%.

As for `CCCOc1cccc2c(=O)c3cccc(CC(=O)O)c3oc12`, the OD with MC-38 [1] is 150 mg/kg. In addition, the Activity in the test with MC-38 [3] is recorded as 90%.

On to `O=C(O)Cc1cccc2c(=O)c3cccc(O)c3oc12`, for which the OD with MC-38 [1] stood at 330 mg/kg.

In the test on MC-38 [1], `Nc1cccc2c(=O)c3cccc(CC(=O)O)c3oc12` displayed an OD of 1125 mg/kg. In the test with MC-38 [3], this compound gave an Activity of 90%.

Consider `CC(=O)Nc1cccc2c(=O)c3cccc(CC(=O)O)c3oc12`, for which, in the test on MC-38 [1], the OD worked out at 330 mg/kg.

For `O=C(O)Cc1cccc2c(=O)c3ccccc3oc12`, the OD with MC-38 [1] came out at 220 mg/kg. Moreover, the Activity in the test on MC-38 [2] is recorded as more than 90%.

Take `O=C(O)Cc1cccc2c(=O)c3cccc([N+](=O)[O-])c3oc12`: the OD in the test on MC-38 [1] turned out to be 330 mg/kg. Besides, the Activity in the test with MC-38 [3] is 90%.

In the test with MC-38 [1], `Cc1cccc2c(=O)c3cccc(CC(=O)O)c3oc12` came in with an OD of 45 mg/kg. The Activity with MC-38 [2] is more than 90%.

As for `O=C(O)Cc1cccc2c(=O)c3cccnc3oc12`, the OD in the test on MC-38 [1] is 750 mg/kg.

As to `O=C(O)Cc1cccc2c(=O)c3cccc(-c4ccccc4)c3oc12`, in the test with MC-38 [1], the OD amounted to 750 mg/kg.

Compound `CCCCOc1cccc2c(=O)c3cccc(CC(=O)O)c3oc12` gave an OD with MC-38 [1] of 220 mg/kg. The compound also displayed an Activity in the test with MC-38 [3] of 90%.

Take `O=C(O)Cc1cccc2c(=O)c3cccc(Br)c3oc12`: the OD in the test on MC-38 [1] was 100 mg/kg.

The values above are taken from ChEMBL document CHEMBL1124762, “Potential antitumor agents. 60. Relationships between structure and in vivo colon 38 activity for 5-substituted 9-oxoxanthene-4-acetic acids” (1990).
